The values below are quoted from earlier work in US20150182481A1, “USE OF POLYMER D-LACTIC ACID (PDLA) TO TREAT PAIN” (priority 2013, published 2015).

For one data set, the system named is C fibers. Conditions: 300 mM lactic acid injection.
Data set [1] concerns nerve poisoned by iodoacetic acid (I.A.A.) and continuously tetanized. The settings on record: I.A.A. solution containing lactate 180 mg/100 cc.

For `C[C@H](O)C(=O)O` [lactic acid, L-Lactic acid], the “firing of C fibers” value in the data set with C fibers is “increase firing of C fibers”.

With `CC(O)C(=O)[O-].[Na+]` (stereo not shown) [sodium lactate], the “effect on sustained galvanic contractions of the nerve” value in data set [1] is reported as “enhances repeated nerve tetanization”. Consider `C[C@@H](O)C(=O)O` [d-lactic acid], for which, for the setting “asymptomatic exercising subjects”, the “plasma d-lactate in asymptomatic exercising subjects” value is listed as 12 mM. For the same compound, the “average plasma concentration at which neurotoxic” value (reversible altered mental status, dysarthria, ataxia) is reported as 7.98 mM.
